Assay results reported in paper PMC8231504, “A Biophysical Insight of Camptothecin Biodistribution: Towards a Molecular Understanding of Its Pharmacokinetic Issues” (Pharmaceutics, 2021).
Where two headings read alike, the source gives them in different places.

Tests used:
[1] = set-up: method as in doi:10.1021/jp035260s; details: DOPC, pH 7.4, fluorescence anisotropy; ref [47]; cited from earlier work
C26 colon carcinomas = test system: C26 colon carcinomas; set-up: method as in PMID 18384903; details: 2.5 mg∙Kg^−1 dose of CPT; ref [79]; cited from earlier work
[2] = Distribution coefficient in membrane/aqueous system, BBB membrane model; format: physicochemical; details: BBB endothelial membrane, pH 7.4, derivative spectroscopy
Text: Single-lipid liposomal membrane models composed of DMPC, or lipid mixture liposomal membrane models mimetic of breast cancer cell membrane—DOPC (25%), CHOL (15%), EPC (31.8%), DOPS (17%), DOPE (8%), cardiolipin (2.5%) and SM (0.7%)—mimetic of cell membrane—DOPC (45%), DOPE (20%), DOPS (20%), CHOL (10%), and SM (10%)—and, blood–brain barrier (BBB) membrane constituted by the BPL—phosphocholine (PC) (12.6%), phosphatidyl ethanolamine (PE) (33.1%), PI (4.1%), phosphatidyl serine (PS) (18.5%), and PA (0.8%) were prepared by the classical thin film hydration method. […]
The distribution coefficient (LogD) of CPT between membrane and aqueous buffered solution (pH 5.8 for breast cancer cell membrane model and pH 7.4 for cell membrane model and BBB membrane model) was determined by fluorescence spectroscopy and derivative UV-Vis spectroscopy. […] The samples contained a fixed concentration of CPT (2 × 10^−5M) and increasing concentrations of lipid suspension (0 to 1 × 10^−3 M for absorbance or 3 × 10^−3 M for fluorescence). […] The fluorescence spectra were also measured on a Perkin-Elmer LS-50B spectrofluorimeter. The emission spectra were obtained in 380–480 nm range with λexcitation = 250 nm and the excitation spectra were recorded in 220–400 nm range with λemission = 430 nm. […]

[3] = set-up: method as in PMID 30654016; details: at lower concentrations (5 µM); ref [38]; cited from earlier work
[4] = Literature in vivo steady-state volume of distribution; details: human, converted from 190 ± 46 L·m^−2 with body surface 1.9 m^2 and body weight 70 kg, ref [71], read-out: in vivo VDSS
HSA [5] = target: HSA (Homo sapiens, UniProt P02768); test: Plasma protein binding by steady-state fluorescence quenching
Sequence of HSA (Homo sapiens, UniProt P02768) (P02768 25-609): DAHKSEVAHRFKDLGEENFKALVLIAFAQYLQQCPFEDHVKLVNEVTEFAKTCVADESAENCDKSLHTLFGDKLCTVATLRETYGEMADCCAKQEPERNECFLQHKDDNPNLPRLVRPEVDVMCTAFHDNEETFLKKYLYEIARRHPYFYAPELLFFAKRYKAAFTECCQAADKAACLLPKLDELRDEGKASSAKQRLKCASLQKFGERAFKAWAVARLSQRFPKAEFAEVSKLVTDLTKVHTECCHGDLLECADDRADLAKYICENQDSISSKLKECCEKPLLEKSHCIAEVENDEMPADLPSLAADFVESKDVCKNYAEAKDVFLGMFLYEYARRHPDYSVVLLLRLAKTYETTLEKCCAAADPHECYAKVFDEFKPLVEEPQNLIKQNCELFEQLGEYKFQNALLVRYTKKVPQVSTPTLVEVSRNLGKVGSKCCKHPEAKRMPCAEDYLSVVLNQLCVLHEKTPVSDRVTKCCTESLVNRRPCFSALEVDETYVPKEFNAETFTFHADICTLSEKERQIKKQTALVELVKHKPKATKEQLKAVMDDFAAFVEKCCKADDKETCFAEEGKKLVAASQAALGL
Description: The fluorescence excitation and emission spectra of increasing CPT concentrations (0 to 3 × 10^−4 M) with a constant HSA concentration (2.0 × 10^−6 M) were acquired at 37.0 ± 0.1 °C (Perkin-Elmer LS-50B spectrofluorimeter, Waltham, USA), with excitation at 280 nm and emission at 342 nm, each with 5 nm slits. The following binding isotherm equation can be used to explain the quenching of HSA fluorescence caused by increasing CPT concentrations:(6) % Quenching=ymáx·n/1+Kdiss/[CPT] where ymax is the maximum fluorescence quenching measured, n is the number of binding sites of HSA to CPT, and Kdiss is the dissociation constant (i.e., the inverse of binding constant, Kbind). In addition, the following equation expresses the relationship between the Kdiss value and the Gibbs free energy ( Δ G) of complex binding:(7) ΔGbind=[…] where R is the ideal gas constant and T is the temperature in Kelvin (K).

[6] = Distribution coefficient in membrane/aqueous system, normal cell membrane model; format: physicochemical; details: for LogD: normal cells membranes (DOPC, DOPE, DOPS, CHOL, SM)
Text: (§1) Single-lipid liposomal membrane models composed of DMPC, or lipid mixture liposomal membrane models mimetic of breast cancer cell membrane—DOPC (25%), CHOL (15%), EPC (31.8%), DOPS (17%), DOPE (8%), cardiolipin (2.5%) and SM (0.7%)—mimetic of cell membrane—[…], DOPE (20%), DOPS (20%), CHOL (10%), and SM (10%)—and, blood–brain barrier (BBB) membrane constituted by the BPL—phosphocholine (PC) (12.6%), phosphatidyl ethanolamine (PE) (33.1%), PI (4.1%), phosphatidyl serine (PS) (18.5%), and PA (0.8%) were prepared by the classical thin film hydration method. Briefly, lipids were co-dissolved in chloroform:methanol (8:2, v/v) and the solvents were evaporated under a stream of nitrogen in a rotary evaporator (Buchi R-200; Sigma-Aldrich Corp., Buchs, Switzerland). The resultant dried lipid film was hydrated with buffer at temperature of 40 ± 0.1 °C and lipid colloidal dispersions were formed by alternating vortex and thermostatic bath (40 ± 0.1 °C). […]
(§2) The distribution coefficient (LogD) of CPT between membrane and aqueous buffered solution (pH 5.8 for breast cancer cell membrane model and pH 7.4 for cell membrane model and BBB membrane model) was determined by fluorescence spectroscopy and derivative UV-Vis spectroscopy. […] The samples contained a fixed concentration of CPT (2 × 10^−5M) and increasing concentrations of lipid suspension (0 to 1 × 10^−3 M for absorbance or 3 × 10^−3 M for fluorescence). […] The fluorescence spectra were also measured on a Perkin-Elmer LS-50B spectrofluorimeter. The emission spectra were obtained in 380–480 nm range with λexcitation = 250 nm and the excitation spectra were recorded in 220–400 nm range with λemission = 430 nm. […] The second and third derivative spectra of the absorbance UV-Vis spectra were determined to improve the resolution of spectral bands and to eliminate the spectral interferences due to light scattered by the lipid suspensions. […]
(§3) Because CPT is a fluorescent compound with spectral variations due to its distribution between the lipid/aqueous phases (e.g., λ shifts), logD of CPT can also be calculated using fluorescence spectroscopy. […]

[7] = Distribution coefficient in membrane/aqueous system, cancer cell membrane model; format: physicochemical; details: for LogD: cancer cells membranes, 37 °C
Text: as §1, §2, §3

HSA [8] = test: Modelling biodistribution using in vitro parameters; set-up: species or system human; details: human, plasma proteins (calculated from in vitro Kbind to HSA); from Kbind to HSA, Equation (14); read-out: PPB (converted)
Description: (§4) The logD value obtained can be used with in silico descriptors to predict many biodistribution parameters using mathematical methods. As a result, the value of logD was used to predict CPT bioaccumulation (as expressed by the bioaccumulation constant, Kbioaccumulation), which is associated to tissue blood flow (Q) and its volume (V):(9) Kbioaccumulation=Q/V·logD
(§5) To determine if the drug is stored in adipose tissue, the adipose store index (ASI) of CPT was calculated using the following equation [28]:(10) ASI=1.81·logD−logD+0.40
(§6) Furthermore, the obtained distribution coefficient in the BPL model system—logD(BBB)—can be compared to logBB, according to Waterbeem and Kansy. The logarithm of the ratio of drug concentrations in brain and blood is known as logBB, and it represents the drug’s relative affinity variations between plasma proteins and brain tissue:(11) logBB=0.388·logDBBB−0.00618·Vm+1.359 where Vm is the membrane model system’s molar volume, determined from the individual lipid volumes.
(§7) The steady-state volume distribution (VDSS) is one of the most useful PK criteria for describing a drug’s biodistribution. The effect of the PPB, permeability, partitioning, and active transport on the drug’s physiological distribution is translated by this predictor. Based on human clinical PK evidence of a wide set of drugs (670 drugs), the first physiological statistical model of VDSS for predicting the biodistribution of neutral and basic drugs was proposed:(12) VDSS=VP·(1+RE/L)+fu·VP(VE/VP−RE/L)+VR·fu/fut where VP and VE are the plasma and extracellular fluid volumes with corresponding value in human of […]; RE/I represents the ratio of extravascular and intravascular proteins, and is strictly referred to the distribution of albumin, assuming an approximate value of 1.4; VR is defined as the physical volume into which the drug distributes minus the extracellular space (0.380 L∙Kg^−1); fu and fut are, respectively, the unbound drug fraction in plasma and the unbound fraction in tissues.
(§8) The fu values can be obtained by the following equation [33]:(13) fu=1−PPB/100 where PPB can be obtained from the in vitro values of Kbind:(14) PPB=100/1+1/CP·Kbind where CP is the physiological plasma protein concentration (750 μM).
(§9) Lastly, fut can be obtained by the following equation [32]:(15) logfut=−0.0289−0.1739·logD−0.8324·fi(7.4)+1.0400·logfu where fi(7.4) is the fraction of ionized drug at pH 7.4 which has been calculated considering the pH hydrolysis and conversion of CPT from lactone neutral form to the anionic form carboxylate reported.

[9] = as above; set-up: species or system human; details: for predicted off-target distribution / bioaccumulation: Equation (9)
Description: as §4, §5, §6, §7, §8, §9

[10] = fluorescence spectroscopy, ref [18],[47],[48] (table), [18],[49],[50]; cited from earlier work
[11] = set-up: method as in PMID 22520977; details: after 2 h in contact with human blood; ref [3]; cited from earlier work
[12] = set-up: method as in PMID 30869853, PMID 21430952; details: DMPC or DMPG, pH 7.4, fluorescence anisotropy; ref [16],[45],[46]; cited from earlier work
BSA = test system: BSA; set-up: method as in Li et al. [17]; details: ref Li et al. [17]; cited from earlier work
[13] = set-up: method as in doi:10.1021/jp035260s; details: DOPG, pH 7.4, fluorescence anisotropy; ref [47]; cited from earlier work

CC[C@@]1(O)C(=O)OCc2c1cc1n(c2=O)Cc2cc3ccccc3nc2-1 [CPT, Camptothecin]
LogD [1]: 1.55 ± 0.05
AUC (blood plasma) (C26 colon carcinomas): 1100 ng·h/mL
LogD [2]: 3.64 ± 0.15
Papp [3]: 30 ×10⁻⁶ cm/s
Vd [4]: 5.16 ± 1.25 L/kg
Kd (HSA [5]; HSA 2.0 × 10^−6 M, 37 °C, read-out: dissociation constant Kdiss): 65.7 µM
binding constant Kbind (HSA [5]; HSA, 37 °C): 1.52 ± 0.26 × 10^4 M^−1
number of binding sites n (HSA [5]; HSA, 37 °C): 1
Gibbs free energy ΔGbind (HSA [5]; HSA, Equation (7)): -5.93 ± 0.10 kcal/mol
average logD ([6]; average over normal and cancer cell membrane models and both methods): 2.89 ± 0.23
LogD ([6]; pH 7.4, derivative UV-Vis spectroscopy): 2.78 ± 0.28 ^ns
LogD ([6]; pH 7.4, fluorescence spectroscopy): 2.63 ± 0.15 ^ns
LogD ([7]; pH 5.8, derivative UV-Vis spectroscopy): 3.14 ± 0.13 ^ns
LogD ([7]; pH 5.8, fluorescence spectroscopy): 3.01 ± 0.31 ^ns
logD in the cancer cell membrane model ([7]; mean of the two methods, pH 5.8): 3.08 ± 0.22
fraction unbound (HSA [8]): 0.0805
adipose storage index (ASI) ([9]; Equation (10), from logD): 2.53 ± 0.12
LogBB (brain accumulation index) ([9]; Equation (11), from logD in BBB endothelial membrane): 2.76 ± 0.06
predicted off-target distribution / bioaccumulation ([9]; adrenal glands, from logD in normal cell membrane model): 61.44%
free drug available for distribution to the tissues ([9]; from PPB): 8.05%
predicted off-target distribution / bioaccumulation ([9]; heart): 3.07%
fraction unbound ([9]; human, plasma (calculated from PPB), Equation (13), read-out: unbound fraction in plasma fu): 0.081
fraction unbound ([9]; human, tissues (predicted), Equation (15), read-out: unbound fraction in tissues fut): 0.0054
Vd ([9]; human, Equation (12), from in vitro logD and PPB, read-out: VDSS (steady-state volume of distribution)): 5.75 ± 0.932 L/kg
predicted off-target distribution / bioaccumulation ([9]; kidneys): 3.07%
predicted off-target distribution / bioaccumulation ([9]; thyroid): 30.72%
LogD / logP in octanol:water [10]: 1.73 ± 0.08
CPT lactone form remaining [11]: 5%
LogD [12]: 2.00 ± 0.16
binding constant Kbind with BSA (BSA): 37200 M⁻¹
LogD [13]: 1.97 ± 0.05
